The source of these data is US11401278B2, “Macrocyclic indole derivatives” (The Broad Institute, Inc., priority 2017, dated 2022).

The conditions of data set [1]: amine bond, 60.0 °C.
The next data set has as its target MCL-1 (Homo sapiens (Human), UniProt Q07820, K194A/K197A/R201A). Briefly: Protein-protein interaction assay MCL-1/Noxa BH3 peptide (MCL-1 assay, TR-FRET). Type of data set: binding. The conditions noted are these: MBP-MCL-1 / Noxa BH3 peptide, median. The method, then:
Protein-Protein Interaction Assay: MCL-1/Noxa BH3 Peptide (MCL-1 Assay)
The dose-dependent inhibition by the compounds described in this invention of the interaction between MCL-1 and the BH3 domain of Noxa (both human) was determined using a steady state binding competition assay with time-resolved fluorescence energy transfer (TR-FRET) readout. For that purpose MCL-1 (amino acids 173-329, N-terminal fused to Maltose Binding Protein (MBP) SEQ ID 1) and a synthetic Noxa BH3-derived peptide of sequence Biotin-PEG2-PEG2-PAELEVE-Nva-ATQLRRFGDKLNFRQKLL-amide (SEQ ID 2) served as protein receptor and tracer ligand respectively. The MBP-MCL-1 was purchased from Beryllium (Bedford, Mass., USA). The expression and purification of this protein construct has been described elsewhere (DOI:10.1371/journal.pone.0125010). The Noxa BH3-derived peptide can be obtained from e.g. Biosyntan (Berlin, Germany).
In the assay 11 different concentrations of each compound (0.1 nM, 0.33 nM, 1.1 nM, 3.8 nM, 13 nM, 44 nM, 0.15 μM, 0.51 μM, 1.7 μM, 5.9 μM and 20 μM) were typically measured as duplicates in the same microtiter plate. For that, 100-fold concentrated DMSO solutions were prepared by serial dilutions (1:3.4) of a 2 mM stock solution in a clear, 384-well microtiter plate (Greiner Bio-One, Frickenhausen, Germany). From there, 50 nl were transferred in a dark test plate (Greiner Bio-One, Frickenhausen, Germany). The assay was initiated by addition of 2 μl of a 2.5-fold concentrated MBP-MCL-1 solution (usually for a 1 nM end concentration in 5 μl reaction volume) in aqueous assay buffer [50 mM Tris/HCl pH 7, 100 mM sodium chloride (NaCl), 50 mM potassium fluoride (KF), 0.005% Tween-20, 2 mM DTT, 0.1% bovine gamma globulin (BGG)] to the compounds in the assay plate. This was followed by a 10-minute incubation step at 22° C. for pre-equilibration of the putative complex between MBP-MCL-1 and the compounds. After that, 3 μl of a 1.67-fold concentrated solution (in assay buffer) consisting of Noxa BH3-derived peptide (1 nM end concentration) and TR-FRET detection reagents [1.67 nM anti-MBP-Eu cryptate and 1.67 nM streptavidin-XL665 (both from Cisbio Bioassays, Codolet, France)], were added.
The mixture was incubated in the dark for one hour at 22° C. and then overnight at 4° C. The formation of MCL-1/Noxa complexes was determined by measuring the resonance energy transfer of the anti-MBP-Eu-cryptate antibody to the streptavidin-XL665 present in the reaction. For that purpose, the fluorescence emission at 620 nm and 665 nm after excitation at 330-350 nm was measured in a TR-FRET measuring instrument, for instance a Rubystar or a Pherastar (both from BMG Lab Technologies, Offenburg, Germany) or a Viewlux (Perkin-Elmer). The ratio of the emission at 665 nm and at 622 nm was used as indicator of the amount of MCL-1/NOXA complexes present.
The resulting data (ratio) were normalized, taking 0% inhibition as the mean value of control measurements (usually 32 data points) where all reagents were included. In this case 50 nl DMSO were used instead of compounds. A 100% inhibition corresponded to the mean value of control measurements (usually 32 data points) where all reagents except MCL-1 were included. IC50 values were determined by regression analysis based on a 4 parameter equation (minimum, maximum, IC50, Hill; Y=Max+(Min−Max)/(1+(X/IC50)^HiII) using the Screener Software (Genedata).
A general note: Time-resolved FRET reads energy transfer from a long-lived donor to a nearby acceptor.

Data set [2] relates to SUDHL5. Briefly: Induction of caspase-3/7 activity (Assay 4), SUDHL5. The following applies: caspase-3/7 induction, 3 hours, median. Type of data set: cell-based. As for the experimental part: (§1) Cellular Assays Assay 4 Induction of Caspase-3/7 Activity Upon Treatment of Cells with Selected Compounds
(§2) The BH3-domain of MCL-1 sequesters pro-apoptotic proteins, thereby inhibiting apoptosis. In contrast, MCL-1 inhibitors are expected to antagonize this effect leading to an increase in apoptosis, which can be determined by measuring the activity of caspase-3/7.
(§3) The activity of caspase-3/7 was determined in DLBCL (Diffuse large B-cell lymphoma) cell lines (SUDHL5 and SUDHL10) upon treatment with different compounds, using the Caspase-Glo® 3/7 reagent from Promega (G8092).
(§4) Rim wells were excluded. The cells were incubated for 3 hours in a humidified incubator at 37° C.
(§5) For the evaluation of the results, the background measured with “medium-only” was subtracted from all other values. […] The Bella DRC Master Sheet was used to calculate EC50s, with fixed C0=1 and CI=plateau/max induction for the reference compound.

Data set [3] concerns SUDHL10. Briefly: Induction of caspase-3/7 activity (Assay 4), SUDHL10. The data set is classed as cell-based. The conditions noted are these: caspase-3/7 induction, 3 hours, median. The method, then: as §1, §2, §3, §4, §5
For data set [4], the system named is SUDHL5. In words: Antiproliferation assay (Assay 7), SUDHL5. Type of data set: cell-based. The following applies: CellTiter-Glo, 72 hours, median, read-out: Antiproli SUDHL5 [M] (median) IC50. As for the experimental part: (§6) Assessment of the Anti-Proliferative Effect of Compounds in Different Cell Lines
(§7) The impact of compounds on the proliferation of different cell lines was assessed using the CellTiter-Glo® Luminescent Cell Viability reagent from Promega (G7573).
(§8) In parallel, cells were plated in a reference (day 0) plate for time zero determination.
(§9) Rim wells were excluded. The cells were incubated for 72 hours in a humidified incubator at 37° C. The day 0 plate was measured by adding 30 μL/well of CTG solution (CellTiter-Glo® Luminescent Cell Viability reagent, Promega G7573) to time zero wells in the reference plate followed by a 10 minutes incubation and luminescence reading at 0.1 ms. using the PHERAstar FS microplate reader (BMG Labtech).
(§10) After 72 hours incubation, the treated plates were measured in the same way as the day 0 plate mentioned above.
(Cellular ATP, detected with luciferase, serves as a proxy for viable cell number.)

The subject of a further data set is AMO-1. In words: Antiproliferation assay (Assay 7), AMO-1. The data set is classed as cell-based. The following applies: CellTiter-Glo, 72 hours, several values per example, read-out: Antiproli AMO-1 [M] IC50. The method, then:
as §6, §7, §8, §9, §10

The test system of another data set is HMC-1-8. In words: Antiproliferation assay (Assay 7), HMC-1-8. The data set is classed as cell-based. The following applies: CellTiter-Glo, 72 hours, several values per example, read-out: Antiproli HMC-1-8 [M] IC50. As for the experimental part: as §6, §7, §8, §9, §10
Data set [5] deals with SUDHL5. Briefly: Induction of cytotoxicity (Assay 6), SUDHL5. The following applies: read-out: Cytotox SUDHL5 [M] (median) IC50, CellTiter-Glo, 5 hours, SUDHL5.
For data set [6], the system named is SUDHL10. Briefly: Induction of cytotoxicity (Assay 6), SUDHL10. The conditions noted are these: read-out: Cytotox SUDHL10 [M] (median) IC50, CellTiter-Glo, 5 hours, SUDHL10.

What is called IC50 is the concentration at which inhibition is half-maximal. Broadly, the EC50 is the concentration at which the effect is half-maximal.

Structures can show the parent of a compound that is named as a salt. Where two headings read alike, the source gives them in different places.

Sequence of MCL-1 (Q07820 whole entry K194A/K197A/R201A, looked up): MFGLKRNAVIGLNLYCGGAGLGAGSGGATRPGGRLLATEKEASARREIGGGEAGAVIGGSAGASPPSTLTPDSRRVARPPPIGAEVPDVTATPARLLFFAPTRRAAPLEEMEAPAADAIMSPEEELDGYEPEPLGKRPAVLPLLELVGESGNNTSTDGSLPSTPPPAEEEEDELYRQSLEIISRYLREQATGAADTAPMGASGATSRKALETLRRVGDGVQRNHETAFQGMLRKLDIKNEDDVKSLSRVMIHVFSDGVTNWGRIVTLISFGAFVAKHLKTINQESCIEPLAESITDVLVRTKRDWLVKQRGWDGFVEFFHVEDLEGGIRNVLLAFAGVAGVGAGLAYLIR

Consider `CCOC(=O)c1c(CCCO[Si](C)(C)C(C)(C)C)c2ccc(Cl)c3c2n1CCCS(=O)(=O)N(C)Cc1nn(C)c(CC)c1-3`, for which, in data set [1] (from CCOC(=O)c1[nH]c2c(-c3c(CN(C)S(=O)(=O)CCCCl)nn(C)c3CC)c(Cl)ccc2c1CCCO[Si](C)(C)C(C)(C)C, Cs2CO3, MeCN, 50.0 mM, 18.0 h), the ring closure, yield of all isomers was 74.6%.

`CCOC(=O)c1c(CCCOc2cccc3ccccc23)c2cccc3c2n1CCCS(=O)(=O)N(CCCN1CCCC1=O)Cc1nn(C)c(CC)c1-3` had a ring closure, yield of all isomers in [1] (from CCOC(=O)c1[nH]c2c(-c3c(CN(CCCN4CCCC4=O)S(=O)(=O)CCCCl)nn(C)c3CC)cccc2c1CCCOc1cccc2ccccc12, NaH, DMF, 25.1 mM, 22.0 h) of 80.5%.

On to `CCc1c2c(nn1C)C(N1CCOCC1)CCN(C)S(=O)(=O)CCCn1c(C(=O)O)c(CCCOc3cccc4cc(F)ccc34)c3ccc(Cl)c-2c31` (single isomer, unassigned; enantiomer 1) [Example 70, (+)-4-chloro-3-ethyl-7-{3-[(6-fluoro-1-naphthyl)oxy]propyl}-2,14-dimethyl-17-(morpholin-4-yl)-11,12,14,15,16,17-hexahydro-2H,10H-pyrazolo[3′,4′:6,7][1,2,10]thiadiazacyclotridecino[8,9,10-hi]indole-8-carboxylic acid 13,13-dioxide trifluoroacetate salt (Enantiomer 1)], for which the IC50 at MCL-1 amounted to 0.086 µM; in the data set with SUDHL5 [4], 4e-06 M; with AMO-1, 7.3e-06 M; with HMC-1-8, 1.5e-05 M; with SUDHL5 [5] it was 2.6e-06 M; in the data set on SUDHL10 [6] it was 4.7e-06 M. Besides, the values for the EC50 in the data set with SUDHL5 [2] and with SUDHL10 [3] were 2.6 µM and 4.4 µM, respectively.

In the case of `CCOC(=O)c1c(CCCOc2cccc3cc(F)ccc23)c2ccc(Cl)c3c2n1CCCS(=O)(=O)N(C1CC1)Cc1nn(C)c(CC)c1-3`, the ring closure, yield of all isomers in data set [1] (from CCOC(=O)c1[nH]c2c(-c3c(CN(C4CC4)S(=O)(=O)CCCCl)nn(C)c3CC)c(Cl)ccc2c1CCCOc1cccc2cc(F)ccc12, cesium carbonate, acetonitrile, 47.2 mM, 16.0 h) worked out at 91%.

Regarding `CCOC(=O)c1c(CCCOc2cccc3cc(F)ccc23)c2ccc(Cl)c3c2n1CCCS(=O)(=O)N(C)CCC(N1CCOCC1)c1nn(C)c(C)c1-3` (centres unmarked), the ring closure, yield of all isomers in data set [1] (from CCOC(=O)c1[nH]c2c(-c3c(C(CCN(C)S(=O)(=O)CCCCl)N4CCOCC4)nn(C)c3C)c(Cl)ccc2c1CCCOc1cccc2cc(F)ccc12, Cs2CO3, acetonitrile, 40.7 mM, 48.0 h) came out at 63.7%.

The compound `CCOC(=O)c1c(CCCOc2cccc3ccccc23)c2cccc3c2n1CCCS(=O)(=O)N(CCN1CCCCC1)Cc1nn(C)c(CC)c1-3` yielded a ring closure, yield of all isomers in [1] (from CCOC(=O)c1[nH]c2c(-c3c(CN(CCN4CCCCC4)S(=O)(=O)CCCCl)nn(C)c3CC)cccc2c1CCCOc1cccc2ccccc12, NaH, DMF, 25.0 mM, 21.0 h) of 69%.

In [1] (from CCOC(=O)c1[nH]c2c(-c3c(CN(CC)S(=O)(=O)CCCCl)nn(C)c3CC)c(Cl)ccc2c1CCCOc1cccc2cc(F)ccc12, cesium carbonate, acetonitrile, 50.9 mM, 48.0 h), `CCOC(=O)c1c(CCCOc2cccc3cc(F)ccc23)c2ccc(Cl)c3c2n1CCCS(=O)(=O)N(CC)Cc1nn(C)c(CC)c1-3` yielded a ring closure, yield of all isomers of 73%.

`CCOC(=O)c1c(CCCOc2cccc3ccccc23)c2cccc3c2n1CCCS(=O)(=O)N(C)C(C)c1nn(C)c(CC)c1-3` (racemic): the ring closure, yield of all isomers in data set [1] (from CCOC(=O)c1[nH]c2c(-c3c(C(C)N(C)S(=O)(=O)CCCCl)nn(C)c3CC)cccc2c1CCCOc1cccc2ccccc12, Cs2CO3, MeCN, 50.0 mM, 18.0 h) stood at 81.9%.

As to `CCOC(=O)c1c(CCCO[Si](C)(C)C(C)(C)C)c2ccc(F)c3c2n1CCCS(=O)(=O)N(C)Cc1nn(C)c(C)c1-3`, the ring closure, yield of all isomers in [1] (from CCOC(=O)c1[nH]c2c(-c3c(CN(C)S(=O)(=O)CCCCl)nn(C)c3C)c(F)ccc2c1CCCO[Si](C)(C)C(C)(C)C, Cs2CO3, NaI, acetonitrile, 87.3 mM, 240.0 h) came to 47.7%.

`CCOC(=O)c1c(CCCOc2cccc3cc(F)ccc23)c2ccc(Cl)c3c2n1CCCS(=O)(=O)N(C)C(CCC1CCOCC1)c1nn(C)c(CC)c1-3` (racemic) displayed a ring closure, yield of all isomers in data set [1] (from CCOC(=O)c1[nH]c2c(-c3c(C(CCC4CCOCC4)N(C)S(=O)(=O)CCCCl)nn(C)c3CC)c(Cl)ccc2c1CCCOc1cccc2cc(F)ccc12, cesium carbonate, acetonitrile, 34.4 mM, 48.0 h) of 77%.

`CCc1c2c(nn1C)CN(C1CC1)S(=O)(=O)CCCn1c(C(=O)O)c(CCCOc3cccc4cc(F)ccc34)c3ccc(Cl)c-2c31` (single isomer, unassigned; enantiomer 2) [Example 55, (+)-4-chloro-14-cyclopropyl-3-ethyl-7-{3-[(6-fluoronaphthalen-1-yl)oxy]propyl}-2-methyl-13,13-dioxo-10,11,12,13,14,15-hexahydro-2H-13lambda^6-pyrazolo[3′,4′:4,5][1,2,8]thiadiazacycloundecino[6,7,8-hi]indole-8-carboxylic acid N-ethylethanamine Salt (Enantiomer 2)]: the IC50 on MCL-1 was 0.016 µM; in the data set on SUDHL5 [4] it was 1.1e-05 M; in the data set on AMO-1 it was more than 3.3e-05 M; with HMC-1-8 it was 2.1e-05 M; with SUDHL5 [5], 8.2e-06 M; in the data set on SUDHL10 [6], 1.3e-05 M. For the same compound, the EC50 was 8.9 µM with SUDHL5 [2] and 13 µM in the data set on SUDHL10 [3].

In the case of `CCOC(=O)c1c(CCCOc2cccc3cc(F)ccc23)c2ccc(Cl)c3c2n1CCCS(=O)(=O)N(Cc1ccc(OC)cc1OC)Cc1nn(C)c(C)c1-3`, the ring closure, yield of all isomers in data set [1] (from CCOC(=O)c1[nH]c2c(-c3c(CN(Cc4ccc(OC)cc4OC)S(=O)(=O)CCCCl)nn(C)c3C)c(Cl)ccc2c1CCCOc1cccc2cc(F)ccc12, cesium carbonate, acetonitrile, 51.5 mM, 16.0 h) stood at 48%.
